Reference: patent US7253296B2, “Acylated aminopropanediols and analogues and therapeutic uses thereof” (Genfit, priority 2003, dated 2007)

Experiments:
LDL = assay: Protection against LDL oxidation induced by copper (conjugated diene formation, OD 234 nm); type: biochemical; details: for intrinsic antioxidant properties (delay of copper-induced LDL oxidation): FIG. 2; for shift of the lag phase latency (conjugated diene formation): relative to control sample, FIG. 2a
Experimental: Oxidation of LDL is an important modification which plays a major role in the onset and development of atherosclerosis (Jurgens, Hoff et al. 1987). […] Unless otherwise indicated, all reagents were from Sigma (St Quentin, France).
LDL were prepared as described in Lebeau et al. (Lebeau, Furman et al. 2000). The solutions of the test compounds were prepared at 10^−2 M in ethanol and diluted in PBS so that the final concentration ranged from 0.1 to 100 μM with a total ethanol concentration of 1% (VN).
Before oxidation, EDTA was removed from the LDL preparation by dialysis. The oxidation reaction was then carried out at 30° C. by adding 100 μl of 16.6 μM CuSO4 to 800 μl of LDL (125 μg protein/ml) and 100 μl of a test compound solution. The formation of dienes, the species to be followed, was measured by the optical density at 234 nm in the samples treated with the compounds in the presence or absence of copper. Optical density at 234 nm was measured every 10 minutes for 8 hours on a thermostated spectrophotometer (Kontron Uvikon 930). The analyses were carried out in triplicate. A compound was considered to have antioxidant activity when it shifted the lag phase latency relative to the control sample. […] FIG. 2 presents an example of the results obtained with the inventive compounds.

Gal4/hPPARα = target: T1, Gal4/hPPARα (Homo sapiens, UniProt Q07869); assay: Gal4/PPARα transactivation system in HepG2 cells (luciferase reporter); details: for induction factor (luminescent signal of treated cells divided by that of untreated cells): HepG2 cells, Gal4/PPARα, 24 h, FIG. 3
T1 sequence (Q07869 239-466 limits assumed): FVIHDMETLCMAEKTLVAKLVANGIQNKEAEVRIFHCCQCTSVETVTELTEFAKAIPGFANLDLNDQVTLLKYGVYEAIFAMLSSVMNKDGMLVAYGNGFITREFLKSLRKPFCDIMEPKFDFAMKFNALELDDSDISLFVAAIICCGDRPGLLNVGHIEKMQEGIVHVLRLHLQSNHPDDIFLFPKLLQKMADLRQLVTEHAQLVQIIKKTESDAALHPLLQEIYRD
Experimental: PPAR activation was tested in vitro in RK13 fibroblast cell lines or in a hematocyte line HepG2 by measuring the transcriptional activity of chimeras composed of the DNA binding domain of the yeast gal4 transcription factor and the ligand binding domain of the different PPARs.
HepG2 cells were from ECACC (Porton Down, UK) and were grown in DMEM medium supplemented with 10% (VN) fetal calf serum, 100 U/ml penicillin (Gibco, Paisley, UK) and 2 mM L-glutamine (Gibco, Paisley, UK). The culture medium was changed every two days. Cells were kept at 37° C. in a humidified 95% air/5% CO2 atmosphere.
The plasmids pG5TkpGL3, pRL-CMV, pGal4-hPPAR□, pGal4-hPPAR□ and pGal4-f have been described by Raspe et al. (Raspe, Madsen et al. 1999).
HepG2 cells were seeded in 24-well culture dishes at 5×10^4 cells/well and transfected for 2 hours with the reporter plasmid pG5TkpGL3 (50 ng/well), the expression vectors pGal4-f, pGal4-mPPARα, pGal4-hPPARα, pGal4-hPPARγ, pGal4-hPPARβ (100 ng/well) and the transfection efficiency control vector pRL-CMV (1 ng/well) according to the previously described protocol (Raspe, Madsen et al. 1999), then incubated for 36 hours with the test compounds. At the end of the experiment, the cells were lysed (Gibco, Paisley, UK) and luciferase activity was determined with a Dual-Luciferase™ Reporter Assay System kit (Promega, Madison, Wis., USA) according to the supplier's instructions. The protein content of the cell extracts was then measured with the Bio-Rad Protein Assay kit (Bio-Rad, Munich, Germany) as directed by the supplier.
The results are expressed as the induction factor (luminescent signal of treated cells divided by luminescent signal of untreated cells) after the different treatments.

melting point	induction factor (luminescent signal of treated cells divided by that of untreated cells) (Gal4/hPPARα; 5 μM)	induction factor (luminescent signal of treated cells divided by that of untreated cells) (Gal4/hPPARα; 15 μM)	induction factor (luminescent signal of treated cells divided by that of untreated cells) (Gal4/hPPARα; 50 μM)	induction factor (luminescent signal of treated cells divided by that of untreated cells) (Gal4/hPPARα; 100 μM)	Compound	intrinsic antioxidant properties (delay of copper-induced LDL oxidation) (LDL)	shift of the lag phase latency (conjugated diene formation) (LDL)	PPARα activation (luciferase activity / luminescent signal), in words (Gal4/hPPARα; cells transfected with pGal4-hPPARα plasmid)
224 °C (dec.)					CCCCCCCCCCCCCCCC(=S)OC(CN)CN.Cl.Cl			
					1,2-(dipalmitoyloxy)-3-tetradecylthioacetylaminopropane [Ex 4]	exhibit intrinsic antioxidant properties	34.3%	
	1.1 fold	2.2 fold	9.6 fold	14.5 fold	1,2-(ditetradecylthioacetyloxy)-3-palmitoylaminopropane [Ex 6]	exhibit intrinsic antioxidant properties		induced an increase in the luminescent signal
	1,2 fold	2.5 fold	7 fold	10.5 fold	1,2-(ditetradecylthioacetyloxy)-3-tetradecylthioacetylaminopropane [Ex 5]	exhibit intrinsic antioxidant properties		
	1.5 fold	7.7 fold	19.8 fold	19.2 fold	CCCCCCCCCCCCCCSCC(=O)NCC(O)CO (stereo not shown) [Ex 2, 3-(tetradecylthioacetylamino)propane-1,2-diol]	exhibit intrinsic antioxidant properties	more than 13%	
104 to 108 °C					CCCCCCCCCCCCCCCC(=O)NCC(O)CO (stereo not shown) [Ex 3, 3-(palmitoylamino)propane-1,2-diol]			
					CCCCCCCCCCCCCCSCC(=O)NCC(CNC(=O)CSCCCCCCCCCCCCCC)OC(=O)CSCCCCCCCCCCCCCC [Ex 11, 1,3-ditetradecylthioacetylamino-2-(tetradecylthioacetyloxy)propane]	exhibit intrinsic antioxidant properties		
